Earlier results on one compound are cited in US7988985B2, “Pest repellent compositions and methods” (priority 2008, dated 2011).

Where only a bound is given, the exact number is not on record here.

For data set [1], the system named is mosquitoes (e.g., Anopheles, Culex pipiens, and Aeges aegypti). The following applies: High-strength formulations containing up to 100% DEET, 95%+ effective.
The next data set has as its system biting-insect. The following applies: Low-strength formulations containing 12.5% DEET.
Data set [2] concerns blackflies (Simulium spp.). The following applies: High-strength formulations containing up to 100% DEET.

Regarding `CCN(CC)C(=O)c1cccc(C)c1` [DEET, N,N,-diethyl-m-toluamide], the duration of effectiveness in data set [1] was 10 to 12 h; in data set [2] (95%+ effective) it was “over 4 hours”. Also, the “effective (repellent effectiveness)” value in the data set with biting-insect is on record as 60-75%; in data set [2] it was at least 95%.
